The structures appear in SMILES notation. pEC50: −log10 of the molar value.

This test deals with PK1 neuroblastoma cells exposed to TPrP. Nature of the test: cells. Type of test: cell-based. As to conditions: Neuroblastoma cell, 96 h, read-out: TPrP EC50.

With `NS(=O)(=O)c1ccc(Nc2nc(-c3ccncc3)cs2)cc1` [SR-186, 4-((4-(pyridin-4-yl)thiazol-2-yl)amino)benzenesulfonamide], the pEC50 (in general, the EC50 on a negative log10 scale, so that one unit is a factor of ten) is 7.15.
Consider `NS(=O)(=O)c1ccc(Nc2nc(-c3ccc(S(=O)(=O)N4CCOCC4)cc3)c(CO)s2)cc1` [SR-34764, 4-((5-(Hydroxymethyl)-4-(4-(morpholinosulfonyl)phenyl)thiazol-2-yl)amino)benzenesulfonamide], for which the pEC50 was 7.22.
The result for `NS(=O)(=O)c1ccc(Nc2nc(-c3ccc(S(=O)(=O)N4CCOCC4)cc3)cs2)cc1` [SR-34765, 4-((4-(4-(Morpholinosulfonyl)phenyl)thiazol-2-yl)amino)benzenesulfonamide] reads 7.15; that for `NS(=O)(=O)c1ccc(Nc2nc(-c3ccc(S(=O)(=O)Nc4ccccc4)cc3)cs2)cc1` [SR-34767, N-Phenyl-4-(2-((4-sulfamoylphenyl)amino)thiazol-4-yl)benzenesulfonamide], less than 6.30; that for `CCN(CC)S(=O)(=O)c1ccc(-c2csc(Nc3ccc(S(N)(=O)=O)cc3)n2)cc1` [SR-34768, N,N-diethyl-4-(2-((4-sulfamoylphenyl)amino)thiazol-4-yl)benzenesulfonamide], 6.82.
As to `CN(C)S(=O)(=O)c1ccc(-c2csc(Nc3ccc(S(N)(=O)=O)cc3)n2)cc1` [SR-34769, N,N-dimethyl-4-(2-((4-sulfamoylphenyl)amino)thiazol-4-yl)benzenesulfonamide], the pEC50 was 7.52.
The figure for `CNS(=O)(=O)c1ccc(-c2csc(Nc3ccc(S(N)(=O)=O)cc3)n2)cc1` [SR-34771, N-methyl-4-(2-((4-sulfamoylphenyl)amino)thiazol-4-yl)benzenesulfonamide] is 7.60; for `NS(=O)(=O)c1ccc(Nc2nc(-c3ccc(S(=O)(=O)N4CCCCC4)cc3)c(CO)s2)cc1` [SR-34772, 4-((5-(Hydroxymethyl)-4-(4-(piperidin-1-ylsulfonyl)phenyl)thiazol-2-yl)amino)benzenesulfonamide] it is 6.40; for `CCN(CC)S(=O)(=O)c1ccc(-c2nc(Nc3ccc(S(N)(=O)=O)cc3)sc2CO)cc1` [SR-34774, N,N-diethyl-4-(5-(hydroxymethyl)-2-((4-sulfamoylphenyl)amino)thiazol-4-yl)benzenesulfonamide] it is 6.82.
The result for `CN(C)S(=O)(=O)c1ccc(-c2nc(Nc3ccc(S(N)(=O)=O)cc3)sc2CO)cc1` [SR-34775, 4-(5-(Hydroxymethyl)-2-((4-sulfamoylphenyl)amino)thiazol-4-yl)-N,N-dimethylbenzenesulfonamide] reads 7.22.
The result for `CNS(=O)(=O)c1ccc(-c2nc(Nc3ccc(S(N)(=O)=O)cc3)sc2CO)cc1` [SR-34777, 4-(5-(Hydroxymethyl)-2-((4-sulfamoylphenyl)amino)thiazol-4-yl)-N-methylbenzenesulfonamide] reads 7.15; that for `CN(C)S(=O)(=O)c1ccc(-c2csc(Nc3ccc(S(C)(=O)=O)cc3)n2)cc1` [SR-34965, N,N-dimethyl-4-(2-((4-(methylsulfonyl)phenyl)amino)thiazol-4-yl)benzenesulfonamide], 7.00.
`CCN(CC)S(=O)(=O)c1ccc(-c2csc(Nc3ccc(S(C)(=O)=O)cc3)n2)cc1` [SR-34966, N,N-diethyl-4-(2-((4-(methylsulfonyl)phenyl)amino)thiazol-4-yl)benzenesulfonamide]: the pEC50 was less than 6.30.
The result for `CC(C)NS(=O)(=O)c1ccc(-c2csc(Nc3ccc(S(C)(=O)=O)cc3)n2)cc1` [SR-34967, N-isopropyl-4-(2-((4-(methylsulfonyl)phenyl)amino)thiazol-4-yl)benzenesulfonamide] reads 6.30; that for `CNS(=O)(=O)c1ccc(-c2nc(Nc3ccc(S(C)(=O)=O)cc3)sc2CO)cc1` [SR-34968, 4-(5-(Hydroxymethyl)-2-((4-(methylsulfonyl)phenyl)amino)thiazol-4-yl)-N-methylbenzenesulfonamide], less than 6.30.
The figure for `CN(C)S(=O)(=O)c1ccc(-c2nc(Nc3ccc(S(C)(=O)=O)cc3)sc2CO)cc1` [SR-34969, 4-(5-(Hydroxymethyl)-2-((4-(methylsulfonyl)phenyl)amino)thiazol-4-yl)-N,N-dimethylbenzenesulfonamide] is 6.46; for `CCN(CC)S(=O)(=O)c1ccc(-c2nc(Nc3ccc(S(C)(=O)=O)cc3)sc2CO)cc1` [SR-34970, N,N-diethyl-4-(5-(hydroxymethyl)-2-((4-(methylsulfonyl)phenyl)amino)thiazol-4-yl)benzenesulfonamide] it is less than 6.30.
The figure for `CC(C)NS(=O)(=O)c1ccc(-c2nc(Nc3ccc(S(C)(=O)=O)cc3)sc2CO)cc1` [SR-34971, 4-(5-(Hydroxymethyl)-2-((4-(methylsulfonyl)phenyl)amino)thiazol-4-yl)-N-isopropylbenzenesulfonamide] is less than 6.30.
On to `CS(=O)(=O)c1ccc(Nc2nc(-c3ccnc(Cl)c3)cs2)cc1F` [SR-34972, 4-(2-Chloropyridin-4-yl)-N-(3-fluoro-4-(methylsulfonyl)phenyl)thiazol-2-amine], for which the pEC50 was 6.90.
Regarding `Cc1cc(-c2csc(Nc3ccc(S(C)(=O)=O)c(F)c3)n2)ccn1` [SR-34973, N-(3-fluoro-4-(methylsulfonyl)phenyl)-4-(2-methylpyridin-4-yl)thiazol-2-amine], the negative logarithm of the EC50 (pEC50) is 7.15.
As for `COc1cc(-c2csc(Nc3ccc(S(C)(=O)=O)c(F)c3)n2)ccn1` [SR-34975, N-(3-fluoro-4-(methylsulfonyl)phenyl)-4-(2-methoxypyridin-4-yl)thiazol-2-amine], the pEC50 is 6.77.
The figure for `COc1cc(-c2csc(Nc3ccc(S(C)(=O)=O)c(F)c3)n2)cc(OC)n1` [SR-34976, 4-(2,6-Dimethoxypyridin-4-yl)-N-(3-fluoro-4-(methylsulfonyl)phenyl)thiazol-2-amine] is 6.49; for `CS(=O)(=O)c1ccc(Nc2nc(-c3ccnc(Cl)c3)c(CO)s2)cc1F` [SR-34977, (4-(2-Chloropyridin-4-yl)-2-((3-fluoro-4-(methylsulfonyl)phenyl)amino)thiazol-5-yl)methanol] it is 6.44; for `Cc1cc(-c2nc(Nc3ccc(S(C)(=O)=O)c(F)c3)sc2CO)ccn1` [SR-34978, (2-((3-Fluoro-4-(methylsulfonyl)phenyl)amino)-4-(2-methylpyridin-4-yl)thiazol-5-yl)methanol] it is 6.49.
Consider `Cc1cc(-c2nc(Nc3ccc(S(C)(=O)=O)c(F)c3)sc2CO)cc(C)n1` [SR-34979, (4-(2,6-Dimethylpyridin-4-yl)-2-((3-fluoro-4-(methylsulfonyl)phenyl)amino)thiazol-5-yl)methanol], for which the pEC50 was 6.44.
The figure for `COc1cc(-c2nc(Nc3ccc(S(C)(=O)=O)c(F)c3)sc2CO)ccn1` [SR-34980, (2-((3-Fluoro-4-(methylsulfonyl)phenyl)amino)-4-(2-methoxypyridin-4-yl)thiazol-5-yl)methanol] is 6.49.
The result for `COc1cc(-c2nc(Nc3ccc(S(C)(=O)=O)c(F)c3)sc2CO)cc(OC)n1` [SR-34981, (4-(2,6-Dimethoxypyridin-4-yl)-2-((3-fluoro-4-(methylsulfonyl)phenyl)amino)thiazol-5-yl)methanol] reads less than 6.30; that for `Cc1cc(-c2csc(Nc3ccc(S(C)(=O)=O)c(C(F)(F)F)c3)n2)ccn1` [SR-34983, 4-(2-Methylpyridin-4-yl)-N-(4-(methylsulfonyl)-3-(trifluoromethyl)phenyl)thiazol-2-amine], 7.40.
The figure for `COc1cc(-c2csc(Nc3ccc(S(C)(=O)=O)c(C(F)(F)F)c3)n2)ccn1` [SR-34985, 4-(2-Methoxypyridin-4-yl)-N-(4-(methylsulfonyl)-3-(trifluoromethyl)phenyl)thiazol-2-amine] is 6.47; for `COc1cc(-c2csc(Nc3ccc(S(C)(=O)=O)c(C(F)(F)F)c3)n2)cc(OC)n1` [SR-34986, 4-(2,6-Dimethoxypyridin-4-yl)-N-(4-(methylsulfonyl)-3-(trifluoromethyl)phenyl)thiazol-2-amine] it is less than 6.30; for `CS(=O)(=O)c1ccc(Nc2nc(-c3ccnc(Cl)c3)c(CO)s2)cc1C(F)(F)F` [SR-34987, (4-(2-Chloropyridin-4-yl)-2-((4-(methylsulfonyl)-3-(trifluoromethyl)phenyl)amino)thiazol-5-yl)methanol] it is 6.32.
Consider `Cc1cc(-c2nc(Nc3ccc(S(C)(=O)=O)c(C(F)(F)F)c3)sc2CO)ccn1` [SR-34988, (4-(2-Methylpyridin-4-yl)-2-((4-(methylsulfonyl)-3-(trifluoromethyl)phenyl)amino)thiazol-5-yl)methanol], for which the pEC50 is 6.47.
The result for `Cc1cc(-c2nc(Nc3ccc(S(C)(=O)=O)c(C(F)(F)F)c3)sc2CO)cc(C)n1` [SR-34989, (4-(2,6-Dimethylpyridin-4-yl)-2-((4-(methylsulfonyl)-3-(trifluoromethyl)phenyl)amino)thiazol-5-yl)methanol] reads 6.49.
The figure for `COc1cc(-c2nc(Nc3ccc(S(C)(=O)=O)c(C(F)(F)F)c3)sc2CO)ccn1` [SR-34990, (4-(2-Methoxypyridin-4-yl)-2-((4-(methylsulfonyl)-3-(trifluoromethyl)phenyl)amino)thiazol-5-yl)methanol] is 6.32; for `COc1cc(-c2nc(Nc3ccc(S(C)(=O)=O)c(C(F)(F)F)c3)sc2CO)cc(OC)n1` [SR-34991, (4-(2,6-Dimethoxypyridin-4-yl)-2-((4-(methylsulfonyl)-3-(trifluoromethyl)phenyl)amino)thiazol-5-yl)methanol] it is less than 6.30; for `Cc1cc(-c2nc(Nc3ccc(S(C)(=O)=O)c(Cl)c3)sc2CO)cc(C)n1` [SR-34995, (2-((3-Chloro-4-(methylsulfonyl)phenyl)amino)-4-(2,6-dimethylpyridin-4-yl)thiazol-5-yl)methanol] it is 6.94.
The figure for `COc1cc(-c2nc(Nc3ccc(S(C)(=O)=O)c(Cl)c3)sc2CO)ccn1` [SR-34996, (2-((3-Chloro-4-(methylsulfonyl)phenyl)amino)-4-(2-methoxypyridin-4-yl)thiazol-5-yl)methanol] is 6.77.
`COCc1sc(Nc2ccc(S(C)(=O)=O)cc2)nc1-c1ccnc(C)c1` [SR-35364, 5-(Methoxymethyl)-4-(2-methylpyridin-4-yl)-N-(4-(methylsulfonyl)phenyl)thiazol-2-amine]: the pEC50 was 6.64.

For the origin of these results see patent US20240150338A1, “COMPOUNDS AND USE THEREOF FOR TREATMENT OF NEURODEGENERATIVE, DEGENERATIVE AND METABOLIC DISORDERS” (University of Florida Research Foundation, Incorporated, priority 2021, published 2024).
